From patent US20060014776A1, “Antitumoral compounds” (Instituto Biomar S.A., priority 2004, published 2006)

Tests used:
[1] = test system: L1210 (lymphocytic leukemia); assay: Disk diffusion soft agar colony formation assay, L1210; assay type: cell-based, murine; conditions: 7.5 μg/ml
Text: (§1) An in vitro cell-based assay was employed to identify solid tumor selectivity for compound IV. The differential cytotoxicity (Valeriote, F.; Grieshaber, C. K.; Media, J.; Pietraszkiewicz, H.; Hoffman, J.; Pan, M.; McLaughlin, S. J. Exp. Ther. Oncol. 2002, 2, 228-236) is expressed by observing a zone differential between any solid tumor cell (Colon38, ColonH116, Lung H125) and either leukemia cells (L1210 or CEM) or normal cells (CFU-GM). A sample is designated as “solid tumor selective” if (zone units of solid tumor—normal cells or leukemia cells) is greater than 250 units.
(§2) Colon 38 gives a good monodispersed cell suspension with mechanical disruption from a mouse tumor. […]
(§3) All of the human cancer cell lines are maintained in cell culture. […] The cells are passed through an 18-gauge needle twice and the monodispersed suspension counted. […]
(§4) A volume of 15 μl of each sample is dropped onto a 6.5 mm disk (Baxter filter disks). […] The plates are incubated for 7-10 days (depending upon the cell type) and examined by an inverted stereo-microscope (10×) for measurement of the zone of inhibition measured from the edge of the filter disk to the beginning of normal-sized colony formation. […] At some dilution, quantifiable cytotoxicity is invariably obtained.
(§5) • a Measured in zone units: 200 zone units=6 mm. […]

[2] = test system: C38 (colon adenocarcinoma); assay: Disk diffusion soft agar colony formation assay, C38; assay type: cell-based, murine
Text: as §1, §2, §3, §4, §5

[3] = test system: CFU-GM-m (colony-forming unit-granulocyte macrophage; normal hematopoietic); assay: Disk diffusion soft agar colony formation assay, CFU-GM-m; assay type: cell-based, murine; conditions: 7.5 μg/ml
Text: as §1, §2, §3, §4, §5

H116 (colon) = assay: Disk diffusion soft agar colony formation assay, H116; assay type: cell-based, human
Text: as §1, §2, §3, §4, §5

H125 (lung) = assay: Disk diffusion soft agar colony formation assay, H125; assay type: cell-based, human
Text: as §1, §2, §3, §4, §5

CEM (leukemia) = assay: Disk diffusion soft agar colony formation assay, CEM; assay type: cell-based, human
Text: as §1, §2, §3, §4, §5

[4] = test system: CFU-GM-h (colony-forming unit-granulocyte macrophage; normal hematopoietic); assay: Disk diffusion soft agar colony formation assay, CFU-GM-h; assay type: cell-based, human; conditions: 7.5 μg/ml
Text: as §1, §2, §3, §4, §5

H116 human colon cells = assay: Clonogenic assay; assay type: cell-based
Procedure: Concentration- and time-survival studies will be carried out against HCT-116 cells. HCT-116 cells are seeded at 200 to 20,000 cells in 60 mm dishes. Drug is added to the medium (RPMI+10% FBS) at concentrations of 1 mg/ml and 10-fold dilutions thereof. […] The dishes are incubated for 7 days, media removed and the colonies stained with methylene blue. Colonies containing 50 cells or more are counted. The results are normalized to an untreated control. Plating efficiency for the untreated cells is about 90%. Repeat experiments are carried out to define the cell survival range between 100% and […]. Subsequently, a concentration is chosen that yields a survival of 10^−2 at 24 hr and time-survival studies carried out from 0 to 48 hr. Both concentration- and time-survival curves are constructed so that AUC values can be calculated. A comparison of tumor to normal provides a theoretical basis for determining whether a compound might be active in therapeutic trials in vivo.

[5] = mouse, in vivo
Procedure: In this dose calculation stage, the projected starting dose is based primarily on the solubility of the new compound. Potential doses are calculated on the basis of blood volume and total body water in mice.
The starting dose is selected on the basis of solubility of the compound in biologically compatible solvents, and the potency derived from in vitro studies.
To start, one normal SCID mouse is dosed intravenously with the solubilized/formulated compound via a one-hour infusion at a maximum dose of 20 mg/mL. The volume infused is 0.25 ml over the one-hour period. If the animal survives the dosing period, clinical signs are noted, and the animal is sacrificed at two hours post infusion and blood collected for subsequent analytical determinations. Two additional SCID mice are then similarly infused with the compound, one being sacrificed at the end of infusion and blood collected and analyzed for drug concentration. The third animal is housed for 2 weeks to ascertain survival, and then euthanized. During the two-week observation period, the animal will be monitored for clinical signs of distress and euthanized if moribund. The dosing data and pharmacologic information (estimate of half-life) from these three animals will guide the subsequent time-course study by approximating a tolerable dose and clearance of the agent. […]

Pharmacokinetics = assay type: in vivo, male SCID mice bearing H116 tumors; conditions: 18.5 mg/kg
Procedure: Compound IV was administered at 18.5 mg/kg to male SCID mice bearing H116 tumors.
By 24 h after drug administration, the concentration of compound IV is about 100 ng/ml.

[6] = test system: HCT-116 cells in SCID mice; assay: In vivo therapeutic trials; conditions: for time taken for tumor volume to reach 4-times the initial volume: control 7 days
Procedure: For the in vivo studies HCT-116 cells in SCID mice will be used. Individual mouse body weights for each experiment are within 5 g and all mice are over 17 g at the start of therapy. The mice are supplied food and water ad libidum. The animals are pooled, implanted subcutaneously with 10^7 cultured cells, and pooled again before distribution to treatment and control groups. Chemotherapy is started when the tumors reach a measurable size (about 150 mm^3). Initially, a 1 hour intravenous infusion will be given and the whole animal toxicity and therapeutic effect correlated with the pharmacology studies described above. Dosage levels are usually closely spaced (2-fold increments or 0.5 decrements). All drugs will be administered intravenously. Mice are killed when their tumors reach 1500 mm^3. Tumor weights are estimated from 2-dimensional caliper measurements done twice a week: Tumor Weight (mg)=(a×b^2)/2 • where a and b are the tumor length and width, respectively, in mm.
For this in vivo study with compound IV, 4 mice were in the control group, 4 in the 2 mg/ml and 1 in the 3 mg/ml groups.
The data were analyzed in terms of time taken for tumor volume to reach 4-times the initial volume. For control tumors this was 7 days, for the 2 mg/ml (0.5 mg/mouse; 25 mg/kg) dose, this was 10 days; and for the 3 mg/ml (0.75 mg/mouse; […]), this was 15 days. Thus, at the maximum tolerated dose there was a T/C of about 50%.

For COc1cc(-c2ccnc3c2C(=O)c2ncc(C)cc2C3=O)ccc1OCCCN [Compound IV], the “zone of inhibition L1210” value [1] was 500 zone units, the “zone of inhibition C38” value ([2]; 1.9 μg/ml) was 100 zone units and the “zone of inhibition C38” value ([2]; 7.5 μg/ml) was 550 zone units. The “zone of inhibition CFU-GMm” value [3] was 650 zone units, the “zone of inhibition H116” value (H116 (colon); 1.9 μg/ml) was 350 zone units and the “zone of inhibition H116” value (H116 (colon); 7.5 μg/ml) was 800 zone units. The “zone of inhibition H125” value (H125 (lung); 1.9 μg/ml) was 600 zone units, the “zone of inhibition H125” value (H125 (lung); 7.5 μg/ml) was greater than 1000 zone units and the “zone of inhibition CEM” value (CEM (leukemia); 1.9 μg/ml) was 150 zone units. The “zone of inhibition CEM” value (CEM (leukemia); 7.5 μg/ml) was 550 zone units, the “zone of inhibition CFU-GMh” value [4] was 650 zone units and the “concentration at which a therapeutic effect would be obtained” value (H116 human colon cells; 7-day continuous exposure) was roughly 0.2 µg/mL. The “concentration at which a therapeutic effect would be obtained” value (H116 human colon cells; maintained for a 24 h period) was roughly 10 µg/mL, the “Lethal Dose” value ([5]; SCID) was 50 mg/kg and the observation after injection ([5]; 40 mg/kg) was “survived but looked shaky right after injection”. For the same molecule, the “concentration attained in the plasma” value (Pharmacokinetics; over at least a 2-h period) was “approximately 1 μg/ml”, the “concentration attained in the tumor” value (Pharmacokinetics; over at least a 2-h period) was “approximately 1 μg/ml” and the concentration at 24 h (Pharmacokinetics; male, SCID, mouse, in vivo, 24 h after drug administration, read-out: concentration of compound IV) was roughly 100 ng/mL. For the same molecule, the “time taken for tumor volume to reach 4-times the initial volume” value ([6]; 2 mg/ml (0.5 mg/mouse; 25 mg/kg) dose) was 10 days, the “time taken for tumor volume to reach 4-times the initial volume” value ([6]; 3 mg/ml (0.75 mg/mouse; 38.5 mg/kg)) was 15 days and the T/C ([6]; at the maximum tolerated dose) was “about 50%”.
